Source: the NIST ThermoML archive (doi:10.1016/j.jct.2012.05.023)

Experiment: xn = mol fraction of the nth substance listed
Details: 101.3 kPa, Liquid; for mass density: Vibrating tube method; for speed of sound: Sing-around technique in a fixed-path interferometer

c1ccc2c(c1)CCCC2 [1,2,3,4-tetrahydronaphthalene] + CCCCCCCCCCCC
Details	mass density, 303.15 K [kg/m3]	mass density, 313.15 K [kg/m3]	mass density, 323.15 K [kg/m3]	mass density, 333.15 K [kg/m3]	mass density, 343.15 K [kg/m3]	speed of sound, 313.15 K [m/s]	speed of sound, 323.15 K [m/s]	speed of sound, 333.15 K [m/s]	speed of sound, 343.15 K [m/s]
x1 = 0.1021	755.74	748.42	741.07	733.68	726.25	1232.1	1194.9	1158.3	1122.2
x1 = 0.2015	770.65	763.25	755.85	748.42	740.94	1242.2	1205.4	1168.6	1132.6
x1 = 0.307	787.92	780.5	773.06	765.58	758.06	1255.9	1218.9	1182.6	1146.8
x1 = 0.3998	804.53	797.07	789.61	782.08	774.5	1268.5	1231.6	1195.2	1159.3
x1 = 0.4985	823.91	816.39	808.85	801.28	793.67	1284.3	1247.4	1211	1175.4
x1 = 0.5961	845.1	837.52	829.89	822.25	814.59	1301.5	1264.5	1228.2	1192.4
x1 = 0.7019	870.59	862.94	855.26	847.55	839.81	1323.6	1286.7	1250.3	1214.6
x1 = 0.8012	897.44	889.71	881.98	874.21	866.35	1347.6	1310.5	1274	1238.2
x1 = 0.8998	927.23	919.41	911.58	903.72	895.83	1376.6	1339.2	1302.5	1266.4
x1 = 1	961.59	953.66	945.72	937.77	929.8	1411.5	1373.6	1336.4	1299.8
